# Measured values from US20110288007A1 (priority 2008, published 2011).
# Key:
# Format in all cases: cell-based
# Set-up in all cases: key: —: No effect (i.e. no significant difference between control [culture with no peptide] and culture with peptide); *: ~1 log effect (i.e. culture with peptide that's growth was ~1 log less than control); **: 1-2 log effect; ***: 2-4 log effect; ****: >4 log effect; “”: “Immediate effect” (i.e. loss of growth by at least 1 log compared to control immediately on addition of peptide [T = 0]
# B. thailandensis E264 = tested on: B. thailandensis E264
# [1] = tested on: Y. pseudotuberculosis IP32593
# F. novicida U112 = tested on: F. novicida U112
# F. tularensis LVS = tested on: F. tularensis LVS
# S. aureus ATCC29213 = conditions: peptide 102 μg/mL, reduction of number of bacteria vs control
# [2] = tested on: B. anthracis Vegetative UM23-Cl2
# B. cepacia J2540 = tested on: B. cepacia J2540
# [3] = tested on: Y. pseudotuberculosis YPIII
Sequence,"Effect of peptides after 4 hours incubation with bacteria, B. thailandensis E264 (B. thailandensis E264)","Effect of peptides after 4 hours incubation with bacteria, Y. pseudotuberculosis IP32593 [1]","Effect of peptides after 4 hours incubation with bacteria, F. novicida U112 (F. novicida U112)","Effect of peptides after 4 hours incubation with bacteria, F. tularensis LVS (F. tularensis LVS)","Effect of peptides after 4 hours incubation with bacteria, S. aureus ATCC29213 (S. aureus ATCC29213)","Effect of peptides after 4 hours incubation with bacteria, B. anthracis Vegetative UM23-Cl2 [2]","Effect of peptides after 4 hours incubation with bacteria, B. cepacia J2540 (B. cepacia J2540)","Effect of peptides after 4 hours incubation with bacteria, Y. pseudotuberculosis YPIII [3]"
GIGKFLHSAKKFGKAFVGEIMNS [Magainin II],—,—,—,—,**** (>4 log effect),,,
LLGDFFRKSKEKIGKEFKRIVQRIKDFLRNLVPRTES [LL-37],—,—,—,—,—,—,—,—
